Values after ≈ are worked out from the molar mass of the structure shown. Where two headings read alike, the source gives them in different places. Residues, ends and D or L forms follow the SMILES beside them.
Assays:
P. aeruginosa [1] = test: Outer membrane permeabilization (NPN uptake) assay; format: cell-based
Description: Membrane-permeabilizing activity of the peptide was determined using the fluorescent dye N-phenyl-1-napthylamine (NPN) assay, as described earlier (Loh et al. (1984) Antimicrob. Agents Chemother. 26, 546-551), with intact cells of E. coli and P. aeruginosa. The increase in fluorescence due to partitioning of NPN uptake into outer membrane (OM) was measured by addition of increasing concentrations of peptide. Polymyxin B (PMB) was taken as a positive control due to its outer membrane permeabilizing properties. All experiments were performed three times. S. aureus was used as a negative control.
Outer membrane permeabilizing activity of EC5 against E. coli and P. aeruginosa was determined using the fluorescent dye N-phenyl-1-napthylamine (NPN) assay. The outer membrane of a bacterial cell is impermeable to NPN under normal conditions. However permeabilization of outer membrane by anti-microbial peptides allows the uptake of NPN thereby leading to increase in fluorescence in the cell. […] The outer membrane permeabilizing activity of EC5 was compared to polymyxin B, a well studied membrane permeabilising agent (Daugelavicius, R., et al., (2000) Antimicrob. Agents Chemother. 44, 2969-2978).

P. aeruginosa [2] = test: Time-kill kinetics; format: cell-based; conditions: P. aeruginosa ATCC 12121; 27853
Description: (§1) In vitro anti-bacterial activity of EC5. The test microorganisms mentioned earlier in the experimental procedures were used to evaluate the bactericidal activity of EC5 peptide. The minimum inhibitory concentrations (MICs) of the peptide were determined by standard dilution assay as recommended by Clinical and Laboratory Standard Institutes (CLSI) guidelines (Azad, M. A., et al., (2011) Antimicrob. Agents Chemother. 55, 2137-2145). Bacteria were grown to mid-logarithmic phase in cation-supplemented Mueller-Hinton broth (MHB) (Becton Dickinson, Sparks, Md.) on an orbital shaker (37° C.) and diluted to a 0.5 McFarland standard to a final volume of 1 ml. Decreasing concentrations of the peptide were incubated with the microorganisms. Results were recorded by visual inspection after 24 h of incubation at 37° C. Assay was repeated three separate times to ensure reproducibility. […] EC5 concentrations 0x, 0.5x, 1x, and 2×MIC were incubated with logarithmic phase of bacteria of approximately 10^5 CFU/ml in an orbital shaker for 48 h at 37° C. Samples were drawn and plated on NA plates. Polymyxin B was used as a positive control and peptide with no anti-bacterial activity from our previous studies was used as a negative control.

E. coli [3] = test: Time-kill kinetics; format: cell-based
Description: as §1

K pneumoniae [4] = format: cell-based
Description: as §1

P. aeruginosa [5] = format: cell-based
Description: as §1

E. coli [6] = format: cell-based
Description: as §1

S. aureus [7] = test: MIC by standard dilution assay (CLSI); format: cell-based
Description: as §1

S. epidermidis [8] = test: MIC by standard dilution assay (CLSI); format: cell-based
Description: as §1

Gram-positive strains = test: MIC by standard dilution assay (CLSI); format: cell-based
Description: as §1

B. cereus [9] = test: MIC by standard dilution assay (CLSI); format: cell-based
Description: as §1

P. aeruginosa cells [10] = test: Qdot-based fluorometry binding assay; conditions: EC5 50 μg/ml
Description: (§2) The assay was carried out as described earlier (21,24). Bacterial cell suspensions at a concentration of 10^3 CFU were incubated with EC5 (50 μg/ml) in an eppendorf tube at room temperature for 60 min. Following three washes with 1×PBS pH 7.4 the pellet was resuspended in […] of 1:10,000 dilution of streptavidin-conjugated Q dots (QD 605) solution (Invitrogen, Gaithersburg, Md.). The fluorometric counts were measured using SYNERGY 4™ BioTek micro plate reader (BioTek Instruments, Winooski, Vt.).
(§3) Binding of the peptide to the bacteria was detected using Qdot-nanocrystal cores conjugated to streptavidin. Analysis of the bacterial suspension binding to the peptide was performed in a micro-well plate using a fluorescence plate reader (SYNERGY 4™, Biotek, USA). Excitation was set to a spectral range of 360-485 nm and emission was at 605 nm. […] The analysis also confirmed that EC5 binds to P. aeruginosa cells.

E. coli [11] = test: Qdot-based fluorometry binding assay; conditions: EC5 50 μg/ml; p<0.0001
Description: as §2, §3

S. aureus [12] = test: Whole-cell ELISA binding of biotinylated peptide; conditions: EC5 50 μg/ml
Description: (§4) ELISA. Log-phase cultures of bacteria were centrifuged at 3,000×g. The cell pellet was resuspended and 10-fold serial dilutions were made in 1×PBS. Bacterial cell suspension at a concentration of 10^3 CFU was coated to the wells of 96-well micro plate (Becton Dickinson, Bedford, Mass.) and incubated overnight at RT. Subsequently, cells were fixed in ethanol (Aldrich Chemical Company, Milwaukee, Wis.) for 10 minutes (min) and the plates were air-dried. Wells were blocked with 5% bovine serum albumin (BSA) (Sigma, St. Louis, Mo.) for 60 min at room temperature (RT), rinsed with PBS and then EC5 peptide suspended in phosphate buffered saline (PBS) at a final concentration of 50 μg/ml were added to all the wells and incubated for 15 min. Following incubation, wells were washed 3 times with PBST buffer (PBS pH 7.4, 0.01% Tween 20). The wells were further incubated with 1:10,000 dilution of streptavidin-HRP conjugate (Upstate, Temecula, Calif.) for 15 min and washed with PBST buffer. Tetramethylbenzidine (TMB) membrane peroxidase substrate (Zymed Laboratories, Carlsbad, Calif.) system was used to detect the enzyme label in accordance with the manufacturer's instructions. The color development in the 96-well plate was recorded by using SYNERGY 4™ BioTek micro plate reader (BioTek Instruments, Winooski, Vt.) at 490 nm wavelength.

E. coli cells = test: Whole-cell ELISA binding of biotinylated peptide; conditions: EC5 50 μg/ml; p<0.001
Description: as §4

K pneumoniae [13] = test: Whole-cell ELISA binding of biotinylated peptide; conditions: EC5 50 μg/ml
Description: as §4

P. aeruginosa cells [14] = test: Whole-cell ELISA binding of biotinylated peptide; conditions: EC5 50 μg/ml; p<0.05
Description: as §4

S. epidermidis [15] = test: Whole-cell ELISA binding of biotinylated peptide; conditions: EC5 50 μg/ml
Description: as §4

B. cereus [16] = test: Whole-cell ELISA binding of biotinylated peptide; conditions: EC5 50 μg/ml
Description: as §4

## CC[C@H](C)[C@H](NC(=O)[C@H](CCCCN)NC(=O)[C@H](CCCNC(=N)N)NC(=O)[C@H](Cc1ccccc1)NC(=O)[C@H](CC(C)C)NC(=O)[C@H](CC(C)C)NC(=O)[C@@H](N)CCCNC(=N)N)C(=O)N[C@@H](CCCNC(=N)N)C(=O)N[C@@H](CCCNC(=N)N)C(=O)N[C@@H](CC(C)C)C(=O)N[C@@H](CCCCN)C(=O)N[C@@H](CCCNC(=N)N)C(=O)O [EC5, RLLFRKIRRLKR] (H-RLLFRKIRRLKR-OH; N-terminus and C-terminus assumed)
P. aeruginosa [1]; at similar concentrations
  increase in NPN fluorescence compared with polymyxin B: higher than for polymyxin B
P. aeruginosa [1]; increasing peptide concentrations
  NPN fluorescence (outer membrane permeabilization): dose-dependent increase in fluorescence
P. aeruginosa [2]
  regrowth: no regrowth until 24 hrs
  time to complete inhibition: 5 min
E. coli [3]; 4 μg/ml, around 45 min of exposure
  reduction of E. coli: 2-3 log10 CFU/ml
E. coli [3]; E. coli ATCC 700928, 25922
  regrowth: no regrowth until 24 hrs
  time to complete inhibition: 5 min
E. coli [3]; MBC concentration of 8 μg/ml
  killing of E. coli: complete killing
K pneumoniae [4]
  MIC: 64 to 128 µg/mL
P. aeruginosa [5]
  MIC: 16 to 32 µg/mL
  Minimum Bactericidal Concentration (MBC): 8 µg/mL
P. aeruginosa [5]; P. aeruginosa ATCC 27853
  MIC: 8 µg/mL (≈ 4.83 µM)
P. aeruginosa [5]; P. aeruginosa, strain not named
  MIC: 8 µg/mL (≈ 4.83 µM)
E. coli [6]
  MIC: 8 µg/mL (≈ 4.83 µM)
  Minimum Bactericidal Concentration (MBC): 8 µg/mL
S. aureus [7]
  activity against S. aureus: not active
S. epidermidis [8]
  activity against S. epidermidis: not active
Gram-positive strains
  activity against Gram-positive strains: no activity
B. cereus [9]
  activity against B. cereus: not active
P. aeruginosa cells [10]
  binding to P. aeruginosa cells (fluorometric counts): binds
E. coli [11]
  binding to E. coli (fluorometric counts): able to bind
S. aureus [12]
  binding to S. aureus: did not bind
E. coli cells
  binding to E. coli cells: significant binding efficiency
K pneumoniae [13]
  binding to K pneumoniae: did not bind
P. aeruginosa cells [14]
  binding to P. aeruginosa cells: showed binding
S. epidermidis [15]
  binding to S. epidermidis: did not bind
B. cereus [16]
  binding to B. cereus: did not bind

From patent US9243036B2, “Anti-microbial activity of synthetic peptides” (THE UNITED STATES OF AMERICA, as represented by the …, priority 2012, dated 2016)
